By IC50 is commonly meant the concentration that gives 50% inhibition.

Read-outs that look alike come from different tables or passages of the source.

Data set [1] relates to Shh signaling. As to the kind of experiment: Shh-LIGHT2 assay for Hh pathway activation (Gli-dependent luciferase reporter). In kind it is cell-based, mouse. For orientation: Reporter assays use an easily measured gene product as a stand-in for the process of interest.
For data set [2] the following is noted: Keeler and Binns 1965; Berman et al. 2002; cited from earlier work.
For data set [3], the system named is Shh signaling. As to conditions: read-out: IC50 in the Shh-LIGHT2 assay, Taipale et al. 2000; cited from earlier work.
The target in another data set is T1, SmoA1-GFP (Mus musculus, UniProt P56726, W539L).
T1 construct: expressed in transfected cells; host or cells: C3H/10T1/2
Nature of the data set: Localization study of SmoA1-GFP in C3H/10T1/2 cells. The class given is cell-based. As to the method:
Localization studies of Smo and SmoA1 proteins: C3H/10T1/2 cells (ATCC) were cultured in DMEM containing 10% fetal bovine serum, 0.5 μg/ml ZnSO4 and β-mercaptoethanol (3.5 μL/500 ml DMEM) on glass coverslips (Bioptechs) in […]. […] To assess SmoA1 subcellular localization, either an ER marker (pECFP-ER; Clontech) or a Golgi marker (pECFP-Golgi; Clontech) was cotransfected with the SmoA1-YFP construct. […] Fluorescent protein illumination, detection and imaging was performed on a Zeiss inverted microscope outfitted with a Xenon light source (Lambda DG4; Sutter instruments), single or dual-pass filters (Chroma Technologies), and a cooled CCD camera (Roper Scientific). Images were acquired and processed with Metamorph software (Universal Images).

For a further data set, the target named is T2, SmoΔCT (Mus musculus, UniProt P56726).
T2 construct: expressed in transfected cells; host or cells: Cos-1
T2 sequence (P56726 33-555 limits assumed): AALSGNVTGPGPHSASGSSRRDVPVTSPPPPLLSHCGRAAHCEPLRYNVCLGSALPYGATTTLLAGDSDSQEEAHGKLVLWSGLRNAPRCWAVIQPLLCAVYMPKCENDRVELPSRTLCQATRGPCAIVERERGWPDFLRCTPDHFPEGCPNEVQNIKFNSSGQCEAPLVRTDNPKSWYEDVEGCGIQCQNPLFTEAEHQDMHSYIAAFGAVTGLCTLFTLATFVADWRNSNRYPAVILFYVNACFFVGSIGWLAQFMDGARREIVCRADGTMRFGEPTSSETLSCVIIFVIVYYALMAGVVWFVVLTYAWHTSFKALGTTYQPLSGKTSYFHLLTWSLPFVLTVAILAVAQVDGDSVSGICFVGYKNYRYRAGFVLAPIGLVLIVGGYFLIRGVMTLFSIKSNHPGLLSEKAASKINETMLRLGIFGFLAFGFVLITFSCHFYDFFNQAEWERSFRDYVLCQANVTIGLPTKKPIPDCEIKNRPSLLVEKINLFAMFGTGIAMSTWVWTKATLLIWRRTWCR
As to the kind of experiment: Fluorescence (BODIPY-cyclopamine) binding assay, Cos-1 cells expressing SmoΔCT. As to conditions: 150 nM KAAD-cyclopamine. The source says:
(§1) Preparation of Smo fusion proteins and deletion mutants: Both Smo-Myc3 and SmoA1-Myc3 are C-terminally fused to three consecutive Myc epitopes. […] Smo-GFP is comprised of green fluorescent protein fused to the C-terminus of Smo, and the fluorescent proteins in SmoA1-YFP, and SmoA1-GFP are similarly fused to the C-terminus of SmoA1. All constructs were generated by PCR and verified by DNA sequencing.
(§2) For flow cytometry experiments, the cells were then trypsinized, collected by centrifugation, resuspended in phenol red-free DMEM containing 0.5% bovine calf serum, and analyzed for green fluorescence (FACScan, Beckton Dickinson). […] Curve fitting analysis was performed with Kaleidograph (Synergy Software).

Data set [4] addresses T3, Smo (Mus musculus, UniProt P56726).
T3 construct: expressed in transfected cells; host or cells: Cos-1
Nature of the data set: Photoaffinity labeling of Smo with 125I-labeled PA-cyclopamine. In kind it is binding.

Another data set deals with T4, SmoΔCRD (Mus musculus, UniProt P56726, DEL68-182).
T4 construct: expressed in transfected cells; host or cells: Cos-1
Nature of the data set: Fluorescence (BODIPY-cyclopamine) binding assay, Cos-1 cells expressing SmoΔCRD. As to conditions: 150 nM KAAD-cyclopamine.
Source text: as §1, §2

A further data set deals with T5, SmoA1-Myc3 (Mus musculus, UniProt P56726, W539L).
T5 construct: expressed in transfected cells; host or cells: Cos-1
As to the kind of experiment: Endo H digestion of SmoA1-Myc3 (glycosylation state) in Cos-1 cells. The class given is cell-based. As to conditions: 5 μM KAAD-cyclopamine. The procedure:
Endo H digestion of Smo proteins: Cos-1 cells were cultured in DMEM containing 10% fetal bovine serum in 6-well plates and transfected with Smo-Myc3 or SmoA1-Myc3 expression vectors (1 μg/well). One day after transfection, 5 μM KAAD-cyclopamine (in MeOH, final concentration 0.1%) was added to a well of the SmoA1-Myc3-expressing cells. Two days after transfection, each well of cells washed twice with PBS and lysed with 300 μL of RIPA buffer (50 mM Tris-Cl, pH 7.5, 150 mM NaCl, 1% NP-40, 0.5% sodium deoxycholate, 1 mM EDTA, 1 (μg/ml leupeptin, 1 μg/ml aprotinin, 0.2 mM phenylmethylsulfonyl fluoride). Cell lysates were centrifuged at 20,000×g for 15 minutes at 4° C., and the supernatant was then centrifuged at 100,000×g for 30 minutes. The supernatant of the second centrifugation was then used for glycosidase treatments and/or SDS-PAGE. For glycosidase treatments, 45 μL of cell lysate was denatured in 0.5% SDS, 1% β-mercaptoethanol for 10 minutes at room temperature and then incubated in 50 mM sodium citrate (pH 5.5) and 50 units of endoglycosidase-H (New England Biolabs) at 37° C. overnight. The anti-Myc monoclonal antibody was used for western blotting, following SDS-PAGE separation and protein transfer to nitrocellulose.

The target of data set [5] is T3, Smo. Nature of the data set: Fluorescence (BODIPY-cyclopamine) binding assay, Smo-expressing Cos-1 cells. The procedure:
as §2

The next data set deals with T6, SmoA1 (Mus musculus, UniProt P56726, W539L).
T6 construct: expressed in transfected cells; host or cells: Cos-1
Nature of the data set: Photoaffinity labeling of SmoA1 with 125I-labeled PA-cyclopamine. The class given is binding. As to conditions: Cos-1 cells, SmoA1-Myc3. As to the method:
Photoaffinity labeling of Smo proteins: Cos-1 cells were cultured in 6-well plates and transfected with Smo-Myc3 or SmoA1-Myc3 expression vectors (1 μg/well). Two days after transfection, each well was incubated with 1 μCi of ^125I-labeled PA-cyclopamine (˜0.5 nM final concentration) in phenol red-free DMEM containing 0.5% bovine calf serum and various concentrations of the indicated compounds for 10 minutes at 37° C. Solvent vehicle alone (MeOH or DMSO) was used as a control in these experiments. PA-cyclopamine was then activated by 254 nm light (80,000 μJ/cm^2; Stratalinker UV-cross-linker) at room temperature. The cells were immediately chilled on ice, removed from the plates by scraping, and then directly lysed and sonicated in SDS-PAGE loading buffer. Total cell lysates were separated by SDS-PAGE and transferred to nitrocellulose for analysis by autoradiography and western blotting with an anti-Myc monoclonal antibody (9E10; Santa Cruz Biotechnology).

T3 sequence (P56726 33-793): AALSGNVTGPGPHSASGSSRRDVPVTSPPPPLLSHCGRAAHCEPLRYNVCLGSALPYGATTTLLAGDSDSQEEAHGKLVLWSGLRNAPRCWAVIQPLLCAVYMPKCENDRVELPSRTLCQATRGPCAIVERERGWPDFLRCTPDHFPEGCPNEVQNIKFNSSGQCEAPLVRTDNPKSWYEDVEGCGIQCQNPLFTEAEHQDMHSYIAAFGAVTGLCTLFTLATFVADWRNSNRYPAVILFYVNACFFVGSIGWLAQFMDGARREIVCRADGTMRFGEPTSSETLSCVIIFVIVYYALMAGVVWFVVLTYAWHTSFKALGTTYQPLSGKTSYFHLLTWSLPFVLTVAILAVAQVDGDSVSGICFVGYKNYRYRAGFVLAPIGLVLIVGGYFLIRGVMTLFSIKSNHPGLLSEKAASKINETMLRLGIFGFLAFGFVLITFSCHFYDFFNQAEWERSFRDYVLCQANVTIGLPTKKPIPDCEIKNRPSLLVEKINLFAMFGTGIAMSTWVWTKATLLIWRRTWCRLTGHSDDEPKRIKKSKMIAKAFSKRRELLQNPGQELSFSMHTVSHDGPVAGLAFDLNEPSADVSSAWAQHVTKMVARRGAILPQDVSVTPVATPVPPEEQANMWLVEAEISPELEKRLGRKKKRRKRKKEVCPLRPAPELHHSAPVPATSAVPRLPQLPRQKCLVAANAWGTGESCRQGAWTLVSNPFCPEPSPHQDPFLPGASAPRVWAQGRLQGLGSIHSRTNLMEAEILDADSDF
T1 sequence (P56726 33-793 W539L): as the sequence (P56726 33-793) above, with W507L counted along it
T5 sequence (P56726 33-793 W539L): as the sequence (P56726 33-793) above, with W507L counted along it
T6 sequence (P56726 33-793 W539L): as the sequence (P56726 33-793) above, with W507L counted along it
T4 sequence (P56726 with tags, fused parts or gaps DEL68-182): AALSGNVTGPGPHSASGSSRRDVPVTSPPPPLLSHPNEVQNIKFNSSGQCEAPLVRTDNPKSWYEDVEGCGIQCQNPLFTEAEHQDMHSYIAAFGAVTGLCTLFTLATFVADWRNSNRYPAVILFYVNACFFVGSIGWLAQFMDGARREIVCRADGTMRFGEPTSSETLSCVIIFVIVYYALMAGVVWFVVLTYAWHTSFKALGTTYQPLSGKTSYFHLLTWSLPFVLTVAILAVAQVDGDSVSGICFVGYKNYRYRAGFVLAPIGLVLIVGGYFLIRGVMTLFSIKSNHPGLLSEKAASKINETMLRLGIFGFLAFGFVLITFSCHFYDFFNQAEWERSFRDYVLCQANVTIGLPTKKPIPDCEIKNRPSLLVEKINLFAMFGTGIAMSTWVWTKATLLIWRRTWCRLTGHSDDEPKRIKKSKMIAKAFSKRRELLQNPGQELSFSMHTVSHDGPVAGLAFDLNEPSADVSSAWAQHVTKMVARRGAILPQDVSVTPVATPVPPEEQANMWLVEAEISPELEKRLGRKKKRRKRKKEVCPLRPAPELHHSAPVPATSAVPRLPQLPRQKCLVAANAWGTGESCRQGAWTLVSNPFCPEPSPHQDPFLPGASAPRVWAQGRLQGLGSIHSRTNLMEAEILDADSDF

For the compound `CC1=C2C[C@H]3[C@@H](CC=C4C[C@@H](O)CC[C@@]43C)[C@@H]2CC[C@]12O[C@@H]1C[C@H](C)CN[C@H]1[C@H]2C` [cyclopamine, reference compound], in the data set with Shh signaling [1] (Mus musculus, Shh Light2, read-out: IC50, inhibition of Shh signaling), the IC50 worked out at 300 nM. Also, the “observable toxicity in treated animals” value in data set [2] was “absence of observable toxicity”.
In the case of `CC1=C2C[C@H]3[C@@H](CC=C4CC(=O)CC[C@@]43C)[C@@H]2CC[C@]12O[C@@H]1C[C@H](C)CN(CCNC(=O)CCCCCNC(=O)CCc3ccccc3)[C@H]1[C@H]2C` [KAAD-cyclopamine], the 50% inhibitory concentration (IC50) in the data set on Shh signaling [3] is 20 nM. For the same compound, on SmoA1-GFP (10 μM), the “ER-localization of SmoA1-GFP” value is “reversed”. For the same compound, the “inhibition of BODIPY-cyclopamine binding to cells expressing SmoΔCT” value on SmoΔCT is listed as “inhibited”. Further, the “competition of PA-cyclopamine labeling of Smo-Myc3” value on Smo [4] (1.5 μM KAAD-cyclopamine, Cos-1 cells) was “inhibited”. On SmoΔCRD, the “inhibition of BODIPY-cyclopamine binding to cells expressing SmoΔCRD” value was “inhibited”. The “shift in SmoA1 glycosylation state (endo H)” value on SmoA1-Myc3 is on record as “partial conversion of SmoA1 to an endo H-resistant form”. Moreover, the “inhibition of BODIPY-cyclopamine binding to cells expressing wildtype Smo” value at Smo [5] (150 nM KAAD-cyclopamine) is recorded as “inhibited”. Also, the Kd at Smo [5] (competition of 5 nM BODIPY-cyclopamine binding, flow cytometry, Cos-1 cells, read-out: apparent dissociation constant (Kd), KAAD-cyclopamine/Smo complex) is 23 nM.
As to `CNC1CCC(N(Cc2cccc(-c3ccncc3)c2)C(=O)c2sc3ccccc3c2Cl)CC1` (stereo not drawn) [SAG], the “ER-localization of SmoA1-GFP” value on SmoA1-GFP (1 μM) is recorded as “reversed”.
With PA-cyclopamine, the half-maximal inhibitory concentration (IC50) at Shh signaling [1] (Shh-LIGHT2 mouse cultured cell assay, read-out: IC50, inhibition of Shh signaling) was determined as 150 nM. Besides, the “photoaffinity cross-linking of SmoA1” value on SmoA1 is “unable to efficiently cross-link”. Moreover, the “photoaffinity labeling of Smo-Myc3 (two forms)” value at Smo [4] (Cos-1 cells transiently transfected, upon photoactivation) was “readily labeled”. At Smo [4] (live NTH-3T3 cells, light activation), the “photoaffinity labeling of endogenous mouse Smo” value is given as “did not detectably label”.

The values above are taken from patent publication US20070218475A1, “Efficient drug screening for protein targets” (priority 2005, published 2007).
